Data: patent US6620839B2, “1,3-disubstituted and 1,3,3-trisubstituted pyrrolidines as histamine-3 receptor ligands and their therapeutic applications” (Abbott Laboratories, priority 2000, dated 2003)

These molecules were tested against T1, histamine-3 receptor (Rattus norvegicus, UniProt Q9QYN8) (assay: Histamine-3 receptor binding, (3H)-N-α-methylhistamine displacement in rat cortical membranes). Details: male Sprague-Dawley rat brain cortical membranes; (3H)-N-α-methylhistamine ~0.6 nM; 30 minutes at 25° C.; Cheng-Prusoff.
T1 construct: from tissue; host or cells: male Sprague-Dawley rat brain cortex membranes
Experimental: Briefly, male Sprague-Dawley rat brain cortices were homogenized (1 g tissue/10 mL buffer) in 50 mM Tris-HCl/5 mM EDTA containing protease inhibitor cocktail (Calbiochem) using a polytron set at 20,500 rpm. Homogenates were centrifuged for 20 minutes at 40,000×g. The supernatant was decanted, and pellets were weighed. The pellet was resuspended by polytron homogenization in 40 mL 50 mM Tris-HCl/5 mM EDTA with protease inhibitors and centrifuged for 20 minutes at 40,000×g. […] Test compounds were dissolved in DMSO to provide 20 mM solution, serially diluted and then added to the incubation mixtures prior to initiating the incubation assay by addition of the membranes. Thioperamide (3 μM) was used to determine nonspecific binding. Binding incubations were conducted for 30 minutes at 25° C. and terminated by addition of 2 mL of ice cold 50 mM Tris-HCl (pH 7.7) and filtration through 0.3% polyethylenimine-soaked Unifilter plates (Packard). These filters were washed 4 additional times with 2 mL of ice-cold 50 mM Tris-HCl and dried for 1 hour. Radioactivity was determined using liquid scintillation counting techniques. Results were analyzed by Hill transformation and Ki values were determined using the Cheng-Prusoff equation.

T1 sequence (Q9QYN8 whole entry): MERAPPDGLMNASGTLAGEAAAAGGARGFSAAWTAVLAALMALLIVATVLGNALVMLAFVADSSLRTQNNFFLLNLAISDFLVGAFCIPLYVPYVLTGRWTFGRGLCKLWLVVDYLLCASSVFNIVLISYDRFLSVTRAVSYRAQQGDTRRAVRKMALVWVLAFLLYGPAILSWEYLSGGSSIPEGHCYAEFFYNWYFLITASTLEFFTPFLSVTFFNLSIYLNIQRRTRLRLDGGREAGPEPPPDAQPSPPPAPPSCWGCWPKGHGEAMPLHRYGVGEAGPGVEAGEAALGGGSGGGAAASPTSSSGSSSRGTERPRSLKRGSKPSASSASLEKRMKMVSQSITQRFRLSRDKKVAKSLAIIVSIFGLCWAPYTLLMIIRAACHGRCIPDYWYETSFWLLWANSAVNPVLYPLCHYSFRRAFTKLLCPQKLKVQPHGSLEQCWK

| SMILES | Ki [nM] |
| --- | --- |
| N#Cc1ccccc1S(=O)(=O)N[C@@H]1CCN(CCCOc2ccc(C(=O)C3CC3)cc2)C1 [Example 90, 2-cyano-N-((3R)-1-{3-[4-(cyclopropylcarbonyl)phenoxy]propyl}pyrrolidinyl)benzenesulfonamide] | 11 |
| CN(C(=O)c1ccc(C#N)cc1)[C@@H]1CCN(CCCOc2ccc(-c3ccc(C#N)cc3)cc2)C1 [Example 120, 4-cyano-N-((3R)-1-{3-[(4′-cyano[1,1′-biphenyl]-4-yl)oxy]propyl}pyrrolidinyl)-N-methylbenzamide] | 10 |
| COc1ccc(S(=O)(=O)N[C@@H]2CCN(CCCOc3ccc(-c4ccc(C#N)cc4)cc3)C2)cc1 [Example 20] | 12 |
| COc1ccc(OC)c(S(=O)(=O)N[C@@H]2CCN(CCCOc3ccc(C(=O)C4CC4)cc3)C2)c1 [Example 63, N-((3R)-1-{3-[4-(cyclopropylcarbonyl)phenoxy]propyl}pyrrolidinyl)-2,5-dimethoxybenzenesulfonamide] | 12 |
| CC(=O)Nc1ccc(S(=O)(=O)N[C@@H]2CCN(CCCOc3ccc(-c4ccccn4)cc3)C2)cc1Cl [Example 107] | 200 |
| CC(C)(C)CC(=O)N(C(=O)CC(C)(C)C)[C@@H]1CCN(CCCOc2ccc(-c3ccc(C#N)cc3)cc2)C1 [Example 147] | 209 |
| N#Cc1ccc(-c2ccc(OCCCN3CC[C@@H](NS(=O)(=O)c4ccc(F)c(Cl)c4)C3)cc2)cc1 [Example 26, 3-chloro-N-((3R)-1-{3-[(4′-cyano[1,1′-biphenyl]-4-yl)oxy]propyl}pyrrolidinyl)-4-fluorobenzenesulfonamide] | 57 |
| CC(=O)Nc1ccc(S(=O)(=O)N[C@@H]2CCN(CCCOc3ccc(C(C)=O)cc3)C2)cc1Cl [Example 76, N-{4-[({(3R)-1-[3-(4-acetylphenoxy)propyl]pyrrolidinyl}amino)sulfonyl]-2-chlorophenyl}acetamide] | 4.9 |
| O=C(c1ccc(OCCCN2CC[C@@H](NS(=O)(=O)c3ccccc3OC(F)(F)F)C2)cc1)C1CC1 [Example 89, N-((3R)-1-{3-[4-(cyclopropylcarbonyl)phenoxy]propyl}pyrrolidinyl)-2-(trifluoromethoxy)benzenesulfonamide] | 11 |
| N#Cc1ccc(-c2ccc(OCCCN3CC[C@@H](NS(=O)(=O)c4ccccc4OC(F)(F)F)C3)cc2)cc1 [Example 45] | 127 |
| O=C(c1ccc(OCCCN2CC[C@@H](NS(=O)(=O)c3ccc(OC(F)(F)F)cc3)C2)cc1)C1CC1 [Example 94, N-((3R)-1-{3-[4-(cyclopropylcarbonyl)phenoxy]propyl}pyrrolidinyl)-4-(trifluoromethoxy)benzenesulfonamide] | 4.9 |
| CN([C@@H]1CCN(CCCOc2ccc(-c3ccc(C#N)cc3)cc2)C1)S(=O)(=O)c1ccc(S(C)(=O)=O)cc1 [Example 128] | 2.3 |
| Cn1cnc(S(=O)(=O)N[C@@H]2CCN(CCCOc3ccc(C(=O)C4CC4)cc3)C2)c1 [Example 80, N-((3R)-1-{3-[4-(cyclopropylcarbonyl)phenoxy]propyl}pyrrolidinyl)-1-methyl-1H-imidazole-4-sulfonamide] | 10 |
| O=C(c1ccc(OCCCN2CC[C@@H](NS(=O)(=O)c3cccc4cccnc34)C2)cc1)C1CC1 [Example 84, N-((3R)-1-{3-[4-(cyclopropylcarbonyl)phenoxy]propyl}pyrrolidinyl)-8-quinolinesulfonamide] | 9.5 |
| COc1ccc(S(=O)(=O)N[C@@H]2CCN(CCCOc3ccc(-c4ccccn4)cc3)C2)cc1OC [Example 106, 3,4-dimethoxy-N-((3R)-1-{3-[4-(2-pyridinyl)phenoxy]propyl}pyrrolidinyl)benzenesulfonamide] | 168 |
| CN(C)C(=O)N[C@@H]1CCN(CCCOc2ccc(-c3ccc(C#N)cc3)cc2)C1 [Example 135] | 132 |
| CC(=O)N(C)[C@@H]1CCN(CCCOc2ccc(-c3ccc(C#N)cc3)cc2)C1 [Example 111] | 11 |
| Cn1cnc(S(=O)(=O)N[C@@H]2CCN(CCCOc3ccc(-c4ccc(C#N)cc4)cc3)C2)c1 [Example 35] | 13 |
| N#Cc1ccc(-c2ccc(OCCCN3CC[C@@H](NS(=O)(=O)c4ccc(C(F)(F)F)cc4)C3)cc2)cc1 [Example 23] | 33 |
| CN(C)[C@@H]1CCN(CCCOc2ccc(-c3ccc(C#N)cc3)cc2I)C1 [Example 169, 4′-{3-[(3R)-3-(dimethylamino)-1-pyrrolidinyl]propoxy}-3 ′-iodo-1,1′-biphenyl-4-carbonitrile] | 206 |
| CN(C(=O)c1cccnc1)[C@@H]1CCN(CCCOc2ccc(-c3ccc(C#N)cc3)cc2)C1 [Example 121] | 16 |

| SMILES | Ki [nM] |
| --- | --- |
| CCc1ccc(S(=O)(=O)N[C@@H]2CCN(CCCOc3ccc(C(=O)C4CC4)cc3)C2)cc1 [Example 66, N-((3R)-1-{3-[4-(cyclopropylcarbonyl)phenoxy]propyl}pyrrolidinyl)-4-ethylbenzenesulfonamide] | 4.6 |
| O=C(N[C@@H]1CCN(CCCOc2ccc(C(=O)C3CC3)cc2)C1)c1csc(-c2cccnc2)n1 [Example 13, N-((3R)-1-{3-[4-(cyclopropylcarbonyl)phenoxy]propyl}pyrrolidinyl)-2-(3-pyridinyl)-1,3-thiazole-4-carboxamide] | 50 |
| N#Cc1ccc(-c2ccc(OCCCN3CC[C@@H](N(C(=O)N4CCOCC4)C(=O)N4CCOCC4)C3)cc2)cc1 [Example 150] | 267 |
| CN(C)C(=O)N(C)[C@@H]1CCN(CCCOc2ccc(-c3ccc(C#N)cc3)cc2)C1 [Example 115, N-((3R)-1-{3-[(4′-cyano[1,1′-biphenyl]-4-yl)oxy]propyl}pyrrolidinyl)-N,N,′N′-trimethylurea] | 21 |
| CC(=O)c1ccc(OCCCN2CC[C@@H](NC(=O)c3ccc(C#N)cc3)C2)cc1 [Example 14, N-{(3R)-1-[3-(4-acetylphenoxy)propyl]pyrrolidinyl}-4-cyanobenzamide] | 40 |
| CC(C)S(=O)(=O)N[C@@H]1CCN(CCCOc2ccc(-c3ccc(C#N)cc3)cc2)C1 [Example 144] | 21 |
| CN(C)[C@@H]1CCN(CCCOc2c(F)cc(-c3ccc(C#N)cc3)cc2Cl)C1 [Example 174, 3′-chloro-4′-{3-[(3R)-3-(dimethylamino)-1-pyrrolidinyl]propoxy}-5′-fluoro-1,1′-biphenyl-4-carbonitrile] | 14 |
| CC(=O)c1ccc(OCCCN2CC[C@@H](NS(=O)(=O)c3ccc(Cl)c(Cl)c3)C2)cc1 [Example 77, N-{(3R)-1-[3-(4-acetylphenoxy)propyl]pyrrolidinyl}-3,4-dichlorobenzenesulfonamide] | 5.3 |
| COc1ccc(S(=O)(=O)N[C@@H]2CCN(CCCOc3ccc(-c4ccccn4)cc3)C2)cc1 [Example 101, 4-methoxy-N-((3R)-1-{3-[4-(2-pyridinyl)phenoxy]propyl}pyrrolidinyl)benzenesulfonamide] | 179 |
| N#Cc1ccc(-c2ccc(OCCCN3CC[C@@H](NS(=O)(=O)C=Cc4ccccc4)C3)cc2)cc1 [Example 44] | 52 |
| Cc1cccc(S(=O)(=O)N[C@@H]2CCN(CCCOc3ccc(-c4ccc(C#N)cc4)cc3)C2)c1 [Example 47] | 12 |
| N#Cc1ccc(-c2ccc(OCCCN3CC[C@@H](NC(=O)c4csc(-c5cccnc5)n4)C3)cc2)cc1 [Example 143] | 85 |
| Cc1ccccc1S(=O)(=O)N[C@@H]1CCN(CCCOc2ccc(C(=O)C3CC3)cc2)C1 [Example 64, N-((3R)-1-{3-[4-(cyclopropylcarbonyl)phenoxy]propyl}pyrrolidinyl)-2-methylbenzenesulfonamide] | 11 |
| Cc1c(S(=O)(=O)N[C@@H]2CCN(CCCOc3ccc(-c4ccc(C#N)cc4)cc3)C2)sc2ccc(Cl)cc12 [Example 37, 5-chloro-N-((3R)-1-{3-[(4′-cyano[1,1′-biphenyl]-4-yl)oxy]propyl}pyrrolidinyl)-3-methyl-1-benzothiophene-2-sulfonamide] | 349 |
| CN(C(=O)OC(C)(C)C)[C@@H]1CCN(CCCOc2ccc(-c3ccc(C#N)cc3)cc2)C1 [Example 109, tert-butyl (3R)-1-{3-[(4′-cyano[1,1′-biphenyl]-4-yl)oxy]propyl}pyrrolidinyl(methyl)carbamate] | 26 |
| O=C(c1ccc(OCCCN2CC[C@@H](NS(=O)(=O)c3cccc(C(F)(F)F)c3)C2)cc1)C1CC1 [Example 62, N-((3R)-1-{3-[4-(cyclopropylcarbonyl)phenoxy]propyl}pyrrolidinyl)-3-(trifluoromethyl)benzenesulfonamide] | 6.4 |
| COC(=O)N[C@@H]1CCN(CCCOc2ccc(-c3ccc(C#N)cc3)cc2)C1 [Example 133, methyl (3R)-1-{3-[(4′-cyano[1,1′-biphenyl]-4-yl)oxy]propyl}pyrrolidinylcarbamate] | 57 |
| CCC(C)(C)OC(=O)N[C@@H]1CCN(CCCOc2ccc(-c3ccc(C#N)cc3)cc2)C1 [Example 134, tert-pentyl (3R)-1-{3-[(4′-cyano[1,1′-biphenyl]-4-yl)oxy]propyl}pyrrolidinylcarbamate] | 168 |
| O=C(c1ccc(OCCCN2CC[C@@H](NS(=O)(=O)c3ccc(F)cc3)C2)cc1)C1CC1 [Example 57, N-((3R)-1-{3-[4-(cyclopropylcarbonyl)phenoxy]propyl}pyrrolidinyl)-4-fluorobenzenesulfonamide] | 3.6 |
| CC(=O)c1ccc(OCCCN2CC[C@@H](NS(=O)(=O)c3cccc4cnccc34)C2)cc1 [Example 75, N-{(3R)-1-[3-(4-acetylphenoxy)propyl]pyrrolidinyl}-5-isoquinolinesulfonamide] | 19 |
